Reference: ChEMBL document CHEMBL1201862, “PubChem BioAssay data set” (2004)
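Method: 48-hour compound exposure of cells in 96-well plates, five concentrations, linear interpolation of endpoints. GI50 marks 50% less growth.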 Calls of active or inactive are those of the source. Rule as the data show it: active = GI50 up to about 1.1 µM and inactive = higher.

What was measured:
Experiment in all cases: NCI anticancer screen, dose series, 48 h
[1] = tested on: HOP-92
[2] = tested on: HT-29
[3] = tested on: IGROV-1
[4] = tested on: SK-MEL-2
[5] = tested on: MOLT-4
[6] = tested on: SF-295
[7] = tested on: KM12
[8] = tested on: SK-MEL-5
[9] = tested on: NCI-H23
[10] = tested on: HOP-62
[11] = tested on: HCC 2998
[12] = tested on: RPMI-8226
[13] = tested on: RXF 393
[14] = tested on: A498
[15] = tested on: EKVX
[16] = tested on: NCI-H522
[17] = tested on: COLO 205

Measured: GI50

S=c1nc(N2CCCCC2)ss1
inactive: [1] 17.5 µM | [2] 28.8 µM | [3] 25.1 µM | [4] 20 µM | [5] 12.4 µM | [6] 29 µM | [7] 17.2 µM | [8] 16.6 µM | [9] 47.5 µM | [10] 26.7 µM | [11] 16.2 µM | [12] 2.75 µM | [13] 16.7 µM | [14] 20.2 µM | [15] 24.2 µM

COS(=O)CCOC(=O)c1ccccc1SSc1ccccc1C(=O)OCCS(=O)OC (stereo not given)
inactive: [1] 25.1 µM | [2] 14.1 µM | [3] > 100 µM | [4] 37.7 µM | [5] 3.44 µM | [16] 4.78 µM | [6] 33.2 µM | [7] 27.1 µM | [8] 67 µM | [17] 23.4 µM | [9] 20.2 µM | [10] > 100 µM | [12] 18.9 µM | [13] 14.2 µM | [14] > 100 µM | [15] > 100 µM

O=S(=O)(c1ccccc1)N1CCC1c1ccccc1 (stereo not given)
inactive: [1] 26.1 µM | [2] > 100 µM | [3] > 100 µM | [4] > 100 µM | [5] 33.7 µM | [16] 98.9 µM | [6] > 100 µM | [7] > 100 µM | [8] > 100 µM | [17] > 100 µM | [9] > 100 µM | [10] > 100 µM | [11] > 100 µM | [12] 43.2 µM | [13] > 100 µM | [14] > 100 µM | [15] > 100 µM

COC(=O)N/N=C/C(=C/Nc1ccccc1)[N+](=O)[O-]
inactive: [1] 21 µM | [2] > 100 µM | [3] > 100 µM | [5] > 100 µM | [16] 86.7 µM | [8] > 100 µM | [17] > 100 µM | [9] > 100 µM | [10] > 100 µM | [11] > 100 µM | [12] > 100 µM | [13] > 100 µM | [15] > 100 µM

N#C[C-](C#N)[n+]1ccc(Cl)cc1
inactive: [1] 15.3 µM | [2] 18 µM | [3] 19.1 µM | [5] 12.7 µM | [16] 3.19 µM | [6] 19 µM | [7] 23.3 µM | [8] 16.1 µM | [17] 18.5 µM | [9] 16.2 µM | [10] 29.2 µM | [12] 4.79 µM | [13] 16.7 µM | [14] 28.7 µM | [15] 19 µM

CC(=O)NC1C(OCc2ccccc2)OC(COC(=O)CCCCCCCCCCNc2ccc([N+](=O)[O-])c3[nH]c4ccccc4c(=O)c23)C(O)C1OC(C)C(=O)NC(C)C(=O)NC(CCC(N)=O)C(=O)OCc1ccccc1 (stereo not given)
inactive: [2] > 100 µM | [3] > 100 µM | [4] > 100 µM | [5] > 100 µM | [16] > 100 µM | [6] > 100 µM | [7] > 100 µM | [8] > 100 µM | [17] > 100 µM | [9] > 100 µM | [10] > 100 µM | [11] > 100 µM | [12] > 100 µM | [14] > 100 µM | [15] > 100 µM

Sc1ccccc1S
inactive: [1] > 100 µM | [2] > 100 µM | [3] > 100 µM | [6] > 100 µM | [17] > 100 µM | [9] > 100 µM | [10] > 100 µM | [11] > 100 µM | [13] > 100 µM | [15] > 10 µM

CC1=C(C(=O)CC(=O)C(=O)Nc2cccc(Cl)c2C)Sc2ccccc2N1
inactive: [1] > 100 µM | [2] > 100 µM | [3] > 100 µM | [4] > 100 µM | [5] > 100 µM | [16] > 100 µM | [6] > 100 µM | [7] > 100 µM | [8] > 100 µM | [9] > 100 µM | [10] > 100 µM | [11] > 100 µM | [12] > 100 µM | [13] > 100 µM | [15] > 100 µM

C/C(=N\NC(=O)CC(=O)Nc1ccc(Cl)cc1)c1cc2ccccc2oc1=O
inactive: [2] > 100 µM | [3] > 100 µM | [5] > 100 µM | [16] > 100 µM | [6] > 100 µM | [7] > 100 µM | [8] > 100 µM | [17] > 100 µM | [9] > 100 µM | [10] > 100 µM | [12] > 100 µM | [13] > 100 µM | [15] > 100 µM

Cc1ccc(S(=O)(=O)CNC(=S)CCCC(=S)NCS(=O)(=O)c2ccc(C)cc2)cc1
inactive: [1] 20.2 µM | [2] > 100 µM | [3] > 100 µM | [5] 22.2 µM | [16] 41.4 µM | [6] > 100 µM | [7] > 100 µM | [8] 79.1 µM | [17] > 100 µM | [9] 35.4 µM | [10] > 100 µM | [11] > 100 µM | [12] 21.4 µM | [13] 79.4 µM | [14] > 100 µM | [15] > 100 µM
